According to ChEMBL document CHEMBL1909046, “DrugMatrix in vitro pharmacology data”:

Columns and labels:
[1] = DRUGMATRIX: ATPase, Na+/K+ enzyme inhibition (substrate: ATP); assay type: tissue-based, Sus scrofa, Heart; conditions: Not Active = under 50% inhibition at 10 µM
[2] = DRUGMATRIX: Glutamate, NMDA, Agonism radioligand binding (ligand: [3H] CGP-39653); assay type: cell membranes, Rattus norvegicus, Wistar, Cerebral cortex, Membrane; conditions: Not Active = under 50% inhibition at 10 µM
[3] = DRUGMATRIX: Imidazoline I2, Central radioligand binding (ligand: [3H] Idazoxan); assay type: cell membranes, Rattus norvegicus, Wistar, Cerebral cortex, Membrane; conditions: Not Active = under 50% inhibition at 10 µM
[4] = target: T1, Cysteinyl leukotriene receptor 1 (Homo sapiens, UniProt Q9Y271); assay type: cell membranes, Membrane; conditions: cho-k1; also: in other assays of this panel Not Active means under 50% inhibition at 10 µM
T1 sequence (Q9Y271 whole entry): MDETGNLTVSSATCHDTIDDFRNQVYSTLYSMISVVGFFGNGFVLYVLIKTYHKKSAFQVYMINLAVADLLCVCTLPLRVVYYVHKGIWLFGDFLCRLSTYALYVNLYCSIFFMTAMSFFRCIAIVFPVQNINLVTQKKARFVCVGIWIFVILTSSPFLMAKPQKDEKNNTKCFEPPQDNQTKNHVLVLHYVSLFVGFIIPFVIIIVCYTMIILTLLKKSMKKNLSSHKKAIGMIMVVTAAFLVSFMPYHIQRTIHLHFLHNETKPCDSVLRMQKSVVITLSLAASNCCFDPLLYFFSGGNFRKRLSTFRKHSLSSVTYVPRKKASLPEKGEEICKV

[5] = target: Melanocortin receptor 4 (Homo sapiens, UniProt P32245); assay type: cell membranes, Membrane; conditions: hek293; also: in other assays of this panel Not Active means under 50% inhibition at 10 µM
Chain of Melanocortin receptor 4 (P32245 whole entry): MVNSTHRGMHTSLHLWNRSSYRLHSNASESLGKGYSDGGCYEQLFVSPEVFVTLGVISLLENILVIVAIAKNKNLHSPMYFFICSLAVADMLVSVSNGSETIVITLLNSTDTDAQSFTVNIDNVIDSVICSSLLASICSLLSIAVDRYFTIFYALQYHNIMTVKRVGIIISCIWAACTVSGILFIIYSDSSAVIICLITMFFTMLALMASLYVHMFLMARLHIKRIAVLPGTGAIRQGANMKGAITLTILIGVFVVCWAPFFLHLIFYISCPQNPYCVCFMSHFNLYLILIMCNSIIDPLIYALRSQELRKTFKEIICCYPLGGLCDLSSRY

[6] = DRUGMATRIX: Platelet-Derived Growth Factor (PDGF) radioligand binding (ligand: [125I] PDGF); assay type: cell-based; conditions: nih3t3; Not Active = under 50% inhibition at 10 µM
[7] = target: T2, Caspase-1 (Homo sapiens, UniProt P29466); parameters: species or system Escherichia coli;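 also: Caspase-1 enzyme inhibition assay with a peptide substrate; in other assays of this panel Not Active means under 50% inhibition at 10 µM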
T2 sequence (P29466 whole entry): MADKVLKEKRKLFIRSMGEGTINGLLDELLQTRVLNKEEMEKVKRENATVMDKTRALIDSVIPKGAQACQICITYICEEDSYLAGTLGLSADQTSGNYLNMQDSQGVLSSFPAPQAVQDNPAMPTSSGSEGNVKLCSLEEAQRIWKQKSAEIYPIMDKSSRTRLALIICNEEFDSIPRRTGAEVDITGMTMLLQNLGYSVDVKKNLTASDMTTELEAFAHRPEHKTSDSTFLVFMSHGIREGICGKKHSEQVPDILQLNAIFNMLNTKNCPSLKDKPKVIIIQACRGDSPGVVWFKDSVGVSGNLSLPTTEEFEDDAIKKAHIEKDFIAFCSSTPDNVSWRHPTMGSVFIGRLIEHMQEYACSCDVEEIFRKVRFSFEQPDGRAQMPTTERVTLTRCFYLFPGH

[8] = target: Mitogen-activated protein kinase 1 (Homo sapiens, UniProt P28482); assay: DRUGMATRIX: Protein Serine/Threonine Kinase, ERK2 enzyme inhibition (substrate: Myelin Basic Protein); parameters: species or system Escherichia coli; conditions: Not Active = under 50% inhibition at 10 µM
Chain of Mitogen-activated protein kinase 1 (P28482 whole entry): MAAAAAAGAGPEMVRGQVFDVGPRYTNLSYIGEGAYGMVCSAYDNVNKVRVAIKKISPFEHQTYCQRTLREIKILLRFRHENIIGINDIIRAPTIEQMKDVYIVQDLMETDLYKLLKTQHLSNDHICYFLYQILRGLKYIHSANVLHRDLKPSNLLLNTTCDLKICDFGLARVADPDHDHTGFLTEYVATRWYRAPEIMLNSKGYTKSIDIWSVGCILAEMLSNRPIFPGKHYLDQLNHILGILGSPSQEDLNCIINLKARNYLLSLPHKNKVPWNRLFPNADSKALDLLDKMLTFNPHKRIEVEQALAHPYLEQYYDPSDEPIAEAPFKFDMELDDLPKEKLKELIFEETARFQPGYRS

COc1cc(CNC(=O)CCCC/C=C/C(C)C)ccc1O [CAPSAICIN]
Not Active: IC50 [1] | Ki [1] | IC50 [2] | Ki [2] | IC50 [3] | Ki [3] | IC50 [4] | IC50 [5] | IC50 [6] | Ki [6] | IC50 [7] | IC50 [8]

NC(=O)N1c2ccccc2C=Cc2ccccc21 [CARBAMAZEPINE]
Not Active: IC50 [1] | Ki [1] | IC50 [2] | Ki [2] | IC50 [3] | Ki [3] | IC50 [4] | IC50 [5] | IC50 [6] | Ki [6] | IC50 [7] | IC50 [8]

CCOC(=O)n1ccn(C)c1=S [CARBIMAZOLE]
Not Active: IC50 [1] | Ki [1] | IC50 [2] | Ki [2] | IC50 [3] | Ki [3] | IC50 [4] | IC50 [5] | IC50 [6] | Ki [6] | IC50 [7] | IC50 [8]

Oc1ccccc1O [CATECHOL]
Not Active: IC50 [1] | Ki [1] | IC50 [2] | Ki [2] | IC50 [3] | Ki [3] | IC50 [4] | IC50 [5] | IC50 [6] | Ki [6] | IC50 [7] | IC50 [8]

CO[C@@]1(NC(=O)CSCC#N)C(=O)N2C(C(=O)O)=C(CSc3nnnn3C)CS[C@@H]21 [CEFMETAZOLE]
Not Active: IC50 [1] | Ki [1] | IC50 [2] | Ki [2] | IC50 [3] | Ki [3] | IC50 [4] | IC50 [5] | IC50 [6] | Ki [6] | IC50 [7] | IC50 [8]

CN(C(=O)CCCOc1ccc2[nH]c(=O)ccc2c1)C1CCCCC1 [CILOSTAMIDE]
Not Active: IC50 [1] | Ki [1] | IC50 [2] | Ki [2] | IC50 [3] | Ki [3] | IC50 [4] | IC50 [5] | IC50 [6] | Ki [6] | IC50 [7] | IC50 [8]

CC(C)(Oc1ccc(C2CC2(Cl)Cl)cc1)C(=O)O (stereo not given) [CIPROFIBRATE]
Not Active: IC50 [1] | Ki [1] | IC50 [2] | Ki [2] | IC50 [3] | Ki [3] | IC50 [4] | IC50 [5] | IC50 [6] | Ki [6] | IC50 [7] | IC50 [8]

Nc1nc(Cl)nc2c1ncn2[C@H]1C[C@H](O)[C@@H](CO)O1 [CLADRIBINE]
Not Active: IC50 [1] | Ki [1] | IC50 [2] | Ki [2] | IC50 [3] | Ki [3] | IC50 [4] | IC50 [5] | IC50 [6] | Ki [6] | IC50 [7] | IC50 [8]

CC[C@H]1OC(=O)[C@H](C)[C@@H](O[C@H]2C[C@@](C)(OC)[C@@H](O)[C@H](C)O2)[C@H](C)[C@@H](O[C@@H]2O[C@H](C)C[C@H](N(C)C)[C@H]2O)[C@](C)(OC)C[C@@H](C)C(=O)[C@H](C)[C@@H](O)[C@]1(C)O [CLARITHROMYCIN]
Not Active: IC50 [1] | Ki [1] | IC50 [2] | Ki [2] | IC50 [3] | Ki [3] | IC50 [4] | IC50 [5] | IC50 [6] | Ki [6] | IC50 [7] | IC50 [8]

CCC[C@@H]1C[C@@H](C(=O)N[C@@H]([C@H]2O[C@H](SC)[C@H](O)[C@@H](O)[C@H]2O)[C@H](C)Cl)N(C)C1 [CLINDAMYCIN]
Not Active: IC50 [1] | Ki [1] | IC50 [2] | Ki [2] | IC50 [3] | Ki [3] | IC50 [4] | IC50 [5] | IC50 [6] | Ki [6] | IC50 [7] | IC50 [8]
